Reference: patent US9125913B2, “Bcl-2-selective apoptosis-inducing agents for the treatment of cancer and immune diseases” (AbbVie Inc., priority 2008, dated 2015)

test system: GST-Bcl-2; assay: TR-FRET binding assay, Bcl-2; conditions: TR-FRET Ki values
Outline: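 Compounds serially diluted in DMSO from 50 μM (2× starting concentration, 10% DMSO), mixed with GST-tagged protein, F-Bak peptide probe and Tb-labeled antibody, incubated 3 h at room temperature.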

| Compound | Binding selectivity ratio (Bcl-XL Ki/Bcl-2 Ki) |
| --- | --- |
| O=C(NS(=O)(=O)c1ccc(NCC2CCOCC2)c([N+](=O)[O-])c1)c1ccc(N2CCN(Cc3cc(OCCCN4CCCCC4)ccc3-c3ccc(Cl)cc3)CC2)cc1Oc1ccccc1 [Example 114, 4-(4-{[4′-chloro-4-(3-piperidin-1-ylpropoxy)-1,1′-biphenyl-2-yl]methyl}piperazin-1-yl)-N-({3-nitro-4-[(tetrahydro-2H-pyran-4-ylmethyl)amino]phenyl}sulfonyl)-2-phenoxybenzamide] | 149.2 |
| O=C(NS(=O)(=O)c1ccc(NCC2CCOCC2)c([N+](=O)[O-])c1)c1ccc(N2CCN(Cc3cc(OCCN4CCOCC4)ccc3-c3ccc(Cl)cc3)CC2)cc1Oc1ccccc1 [Example 115, 4-(4-{[4′-chloro-4-(2-morpholin-4-ylethoxy)-1,1′-biphenyl-2-yl]methyl}piperazin-1-yl)-N-({3-nitro-4-[(tetrahydro-2H-pyran-4-ylmethyl)amino]phenyl}sulfonyl)-2-phenoxybenzamide] | 156.4 |
| CN(C)CCCOc1ccc(-c2ccc(Cl)cc2)c(CN2CCN(c3ccc(C(=O)NS(=O)(=O)c4ccc(NCC5CCOCC5)c([N+](=O)[O-])c4)c(Oc4ccccc4)c3)CC2)c1 [Example 116, 4-[4-({4′-chloro-4-[3-(dimethylamino)propoxy]-1,1′-biphenyl-2-yl}methyl)piperazin-1-yl]-N-({3-nitro-4-[(tetrahydro-2H-pyran-4-ylmethyl)amino]phenyl}sulfonyl)-2-phenoxybenzamide] | 230.7 |
| O=C(NS(=O)(=O)c1ccc(NCC2CCOCC2)c(S(=O)(=O)C(F)(F)F)c1)c1ccc(N2CCN(Cc3cc(OCCN4CCOCC4)ccc3-c3ccc(Cl)cc3)CC2)cc1Oc1ccccc1 [Example 117, 4-(4-{[4′-chloro-4-(2-morpholin-4-ylethoxy)-1,1′-biphenyl-2-yl]methyl}piperazin-1-yl)-2-phenoxy-N-({4-[(tetrahydro-2H-pyran-4-ylmethyl)amino]-3-[(trifluoromethyl)sulfonyl]phenyl}sulfonyl)benzamide] | >287.1 |
| O=C(NS(=O)(=O)c1ccc(NCC2CCOCC2)c(S(=O)(=O)C(F)(F)F)c1)c1ccc(N2CCN(Cc3cc(OCCCN4CCCCC4)ccc3-c3ccc(Cl)cc3)CC2)cc1Oc1ccccc1 [Example 118, 4-(4-{[4′-chloro-4-(3-piperidin-1-ylpropoxy)-1,1′-biphenyl-2-yl]methyl}piperazin-1-yl)-2-phenoxy-N-({4-[(tetrahydro-2H-pyran-4-ylmethyl)amino]-3-[(trifluoromethyl)sulfonyl]phenyl}sulfonyl)benzamide] | >858.3 |
| CN(C)CCCOc1ccc(-c2ccc(Cl)cc2)c(CN2CCN(c3ccc(C(=O)NS(=O)(=O)c4ccc(NCC5CCOCC5)c(S(=O)(=O)C(F)(F)F)c4)c(Oc4ccccc4)c3)CC2)c1 [Example 119, 4-[4-({4′-chloro-4-[3-(dimethylamino)propoxy]-1,1′-biphenyl-2-yl}methyl)piperazin-1-yl]-2-phenoxy-N-({4-[(tetrahydro-2H-pyran-4-ylmethyl)amino]-3-[(trifluoromethyl)sulfonyl]phenyl}sulfonyl)benzamide] | 370.2 |
| CN(C)CCOc1cccc(-c2ccc(Cl)cc2)c1CN1CCN(c2ccc(C(=O)NS(=O)(=O)c3ccc(NCC4CCOCC4)c(S(=O)(=O)C(F)(F)F)c3)c(Oc3ccccc3)c2)CC1 [Example 124, 4-[4-({4′-chloro-3-[2-(dimethylamino)ethoxy]-1,1′-biphenyl-2-yl}methyl)piperazin-1-yl]-2-phenoxy-N-({4-[(tetrahydro-2H-pyran-4-ylmethyl)amino]-3-[(trifluoromethyl)sulfonyl]phenyl}sulfonyl)benzamide] | 220.1 |
| O=C(NS(=O)(=O)c1ccc(NCC2CCOCC2)c([N+](=O)[O-])c1)c1ccc(N2CCN(Cc3cc(OCCN4CCOCC4)ccc3-c3ccc(Cl)cc3)CC2)cc1Oc1ccc2[nH]ccc2c1 [Example 127, 4-(4-{[4′-chloro-4-(2-morpholin-4-ylethoxy)-1,1′-biphenyl-2-yl]methyl}piperazin-1-yl)-2-(1H-indol-5-yloxy)-N-({3-nitro-4-[(tetrahydro-2H-pyran-4-ylmethyl)amino]phenyl}sulfonyl)benzamide] | >1437.9 |
| CN(C)CCNc1ccc(S(=O)(=O)NC(=O)c2ccc(N3CCN(Cc4ccccc4-c4ccc(Cl)cc4)CC3)cc2Oc2ccccc2)cc1[N+](=O)[O-] [Example 153, 4-{4-[(4′-chloro-1,1′-biphenyl-2-yl)methyl]piperazin-1-yl}-N-[(4-{[2-(dimethylamino)ethyl]amino}-3-nitrophenyl)sulfonyl]-2-phenoxybenzamide] | 351 |
| CN(C)CCCCNc1ccc(S(=O)(=O)NC(=O)c2ccc(N3CCN(Cc4ccccc4-c4ccc(Cl)cc4)CC3)cc2Oc2ccccc2)cc1[N+](=O)[O-] [Example 156, 4-{4-[(4′-chloro-1,1′-biphenyl-2-yl)methyl]piperazin-1-yl}-N-[(4-{[4-(dimethylamino)butyl]amino}-3-nitrophenyl)sulfonyl]-2-phenoxybenzamide] | 53.1 |
| O=C(NS(=O)(=O)c1ccc(NC2CCN(S(=O)(=O)c3ccccc3)CC2)c([N+](=O)[O-])c1)c1ccc(N2CCN(Cc3ccccc3-c3ccc(Cl)cc3)CC2)cc1Oc1ccccc1 [Example 157, 4-{4-[(4′-chloro-1,1′-biphenyl-2-yl)methyl]piperazin-1-yl}-N-[(3-nitro-4-{[1-(phenylsulfonyl)piperidin-4-yl]amino}phenyl)sulfonyl]-2-phenoxybenzamide] | >148.2 |
| O=C(NS(=O)(=O)c1ccc(NC2CCN(S(=O)(=O)c3cccc4cccnc34)CC2)c([N+](=O)[O-])c1)c1ccc(N2CCN(Cc3ccccc3-c3ccc(Cl)cc3)CC2)cc1Oc1ccccc1 [Example 158, 4-{4-[(4′-chloro-1,1′-biphenyl-2-yl)methyl]piperazin-1-yl}-N-[(3-nitro-4-{[1-(quinolin-8-ylsulfonyl)piperidin-4-yl]amino}phenyl)sulfonyl]-2-phenoxybenzamide] | >10.2 |
| CN(C)CC[C@H](Nc1ccc(S(=O)(=O)NC(=O)c2ccc(N3CCN(Cc4ccccc4-c4ccc(Cl)cc4)CC3)cc2Oc2ccccc2)cc1[N+](=O)[O-])c1cccs1 [Example 161, 4-{4-[(4′-chloro-1,1′-biphenyl-2-yl)methyl]piperazin-1-yl}-N-[(4-{[(1S)-3-(dimethylamino)-1-thien-2-ylpropyl]amino}-3-nitrophenyl)sulfonyl]-2-phenoxybenzamide] | >386.0 |
| O=C(NS(=O)(=O)c1ccc(NCc2cccs2)c([N+](=O)[O-])c1)c1ccc(N2CCN(Cc3ccccc3-c3ccc(Cl)cc3)CC2)cc1Oc1ccccc1 [Example 162, 4-{4-[(4′-chloro-1,1′-biphenyl-2-yl)methyl]piperazin-1-yl}-N-({3-nitro-4-[(thien-2-ylmethyl)amino]phenyl}sulfonyl)-2-phenoxybenzamide] | 123.8 |
| O=C(NS(=O)(=O)c1ccc(NCC2CCOCC2)c(S(=O)(=O)C(F)(F)F)c1)c1ccc(N2CCN(Cc3ccccc3-c3ccc(Cl)cc3)CC2)cc1Oc1ccccc1 [Example 163, 4-{4-[(4′-chloro-1,1′-biphenyl-2-yl)methyl]piperazin-1-yl}-2-phenoxy-N-({4-[(tetrahydro-2H-pyran-4-ylmethyl)amino]-3-[(trifluoromethyl)sulfonyl]phenyl}sulfonyl)benzamide] | >117.5 |
